For the assay, the target named is T1, human kinase Mps-1 (Homo sapiens, UniProt P33981).
T1 construct: N-terminally GST-tagged human full length recombinant Mps-1 kinase; GST (N); purchased Invitrogen, Karslruhe, Germany PV4071
T1 sequence (P33981 1-857): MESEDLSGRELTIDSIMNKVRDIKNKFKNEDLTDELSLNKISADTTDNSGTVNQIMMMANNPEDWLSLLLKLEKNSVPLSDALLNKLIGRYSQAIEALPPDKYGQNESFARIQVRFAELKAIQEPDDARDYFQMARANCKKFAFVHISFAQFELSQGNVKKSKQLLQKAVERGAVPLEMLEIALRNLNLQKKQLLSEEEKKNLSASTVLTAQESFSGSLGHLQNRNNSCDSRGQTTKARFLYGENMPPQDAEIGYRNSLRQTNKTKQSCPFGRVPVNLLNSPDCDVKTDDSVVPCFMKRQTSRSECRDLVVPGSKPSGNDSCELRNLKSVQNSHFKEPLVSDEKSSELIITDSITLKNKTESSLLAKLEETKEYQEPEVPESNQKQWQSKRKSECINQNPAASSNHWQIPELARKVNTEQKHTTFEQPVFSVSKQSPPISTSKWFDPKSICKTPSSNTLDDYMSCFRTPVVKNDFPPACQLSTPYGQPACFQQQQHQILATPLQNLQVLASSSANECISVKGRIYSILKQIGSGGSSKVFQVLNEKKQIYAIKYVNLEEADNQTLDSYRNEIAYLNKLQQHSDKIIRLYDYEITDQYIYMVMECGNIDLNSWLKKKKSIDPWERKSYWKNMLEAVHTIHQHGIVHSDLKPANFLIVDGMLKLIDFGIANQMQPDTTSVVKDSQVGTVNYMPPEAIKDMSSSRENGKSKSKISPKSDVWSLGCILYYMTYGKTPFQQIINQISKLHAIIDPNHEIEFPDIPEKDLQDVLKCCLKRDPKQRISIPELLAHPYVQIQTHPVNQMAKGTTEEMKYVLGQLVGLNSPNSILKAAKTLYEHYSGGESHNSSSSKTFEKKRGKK
Nature of the assay: Mps-1 kinase assay (TR-FRET). To be noted: N-terminally GST-tagged human full length recombinant Mps-1; 10 μM ATP; 1 μM peptide substrate; 60 min at 22° C.; read-out: MPS1 Inhibition, IC50 in M. In kind it is biochemical. As for the experimental part: The human kinase Mps-1 phosphorylates a biotinylated substrate peptide. Detection of the phosphorylated product is achieved by time-resolved fluorescence resonance energy transfer (TR-FRET) from Europium-labelled anti-phospho-Serine/Threonine antibody as donor to streptavidin labelled with cross-linked allophycocyanin (SA-XLent) as acceptor. Compounds are tested for their inhibition of the kinase activity.
N-terminally GST-tagged human full length recombinant Mps-1 kinase (purchased from Invitrogen, Karslruhe, Germany, cat. no PV4071) was used. […]
The resulting mixture was incubated 1 h at 22° C. to allow the binding of the phosphorylated peptide to the anti-phospho(Ser/Thr)-Europium-antibody. Subsequently the amount of phosphorylated substrate was evaluated by measurement of the resonance energy transfer from the Europium-labelled anti-phospho(Ser/Thr) antibody to the Streptavidin-XLent. Therefore, the fluorescence emissions at 620 nm and 665 nm after excitation at 350 nm was measured in a Viewlux TR-FRET reader (PerkinElmer LAS, Rodgau-Jügesheim, Germany). The “blank-corrected normalized ratio” (a Viewlux specific readout, similar to the traditional ratio of the emissions at 665 nm and at 622 nm, in which blank and Eu-donor crosstalk are subtracted from the 665 nm signal before the ratio is calculated) was taken as the measure for the amount of phosphorylated substrate. […]

Structures are written as SMILES.

For orientation: IC50 means the concentration that inhibits the measured activity by half.

Consider `Cc1c(-c2ccc(NC(=O)Cc3ccccc3)cc2)ccc2nc(Nc3ccccc3C#N)nn12` [Example 1.1, N-(4-{2-[(2-cyanophenyl)amino]-5-methyl[1,2,4]triazolo[1,5-a]pyridin-6-yl}phenyl)-2-phenylacetamide], for which the IC50 was 1.8 nM.

The record behind these values is patent US8551980B2, “Substituted triazolopyridines” (Bayer Intellectual Property GmbH, priority 2009, dated 2013).
